Experimental data as given in patent EP0908457B1, “3-(1,2-benzisothiazol- and isoxazol-5-Y1)-2,4(1H,3H)-pyrimidinedione or thione and 3-(1,2-benzisothiazol- and isoxazol-5-y1)-4(3H)-pyrimidinone or thione herbicidal agents” (BASF AKTIENGESELLSCHAFT, priority 1997, dated 1999).

How the values were obtained:
[1] = test system: Monochoria vaginalis, Presl.; assay: Preemergence weed control under flooded paddy conditions, MOOVA (Monochoria); format: in vivo; conditions: flooded paddy; for MOOVA herbicidal effect rating / MOOVA herbicidal rating / herbicidal effect rating, MOOVA: preemergence, rated three to four weeks after treatment; for MOOVA: preemergence weeds, herbicidal effect rating 0-9, three to four weeks after treatment; for herbicidal effect rating, MOOVA: meaning of each grade not given here
Sagittaria pygmaea, L. = assay: Preemergence weed control under flooded paddy conditions, SAGPY (Arrowhead (Pygmaea)); format: in vivo; conditions: flooded paddy; for SAGPY herbicidal effect rating / SAGPY herbicidal rating / herbicidal effect rating, SAGPY: preemergence, rated three to four weeks after treatment; for SAGPY: preemergence weeds, herbicidal effect rating 0-9, three to four weeks after treatment; for herbicidal effect rating, SAGPY: meaning of each grade not given here
Cyperus iria = assay: Preemergence weed control under flooded paddy conditions, CYPIR (Rice Flatsedge); format: in vivo; conditions: flooded paddy; for CYPIR herbicidal effect rating / CYPIR herbicidal rating / herbicidal effect rating, CYPIR: preemergence, rated three to four weeks after treatment; for CYPIR: preemergence weeds, herbicidal effect rating 0-9, three to four weeks after treatment; for herbicidal effect rating, CYPIR: meaning of each grade not given here
[2] = test system: Oryza sativa, (L.) Tebonnet; assay: Rice tolerance to post-transplant applications under flooded paddy conditions (Example 187), ORYSAT (Rice, Tebonnet); conditions: for ORYSAT herbicidal effect rating / ORYSAT herbicidal rating (rice tolerance) / herbicidal effect rating, ORYSAT (rice tolerance) / herbicidal effect rating ORYSAT: rated three to four weeks after treatment; for ORYSAT: herbicidal effect rating 0-9, three to four weeks after treatment
[3] = test system: Cyperus serotinus, Rottb.; assay: Preemergence weed control under flooded paddy conditions, CYPSE (Flatsedge); format: in vivo; conditions: for CYPSE herbicidal effect rating / CYPSE herbicidal rating / herbicidal effect rating, CYPSE: preemergence, rated three to four weeks after treatment; for CYPSE: preemergence weeds, herbicidal effect rating 0-9, three to four weeks after treatment; for herbicidal effect rating, CYPSE: meaning of each grade not given here
[4] = test system: Echinochloa oryzoides (Ard.) Fritsch.; assay: Preemergence weed control under flooded paddy conditions, ECHORC (Watergrass (Calif.)); format: in vivo; conditions: flooded paddy; for ECHORC herbicidal effect rating / ECHORC herbicidal rating / herbicidal effect rating, ECHORC: preemergence, rated three to four weeks after treatment; for ECHORC: preemergence weeds, herbicidal effect rating 0-9, three to four weeks after treatment; for herbicidal effect rating, ECHORC: meaning of each grade not given here

With CC(=O)Nc1nnc(S(=O)(=O)NC(=O)COc2ccc(C)cc2-c2nsc3ccc(-n4c(=O)cc(C(F)(F)F)n(C)c4=O)cc23)s1 [Example 269, Acetamide, N-[(5-acetamido-1,3,4-thiadiazol-2-yl)sulfonyl]-2-{{2-{5-[3,6-dihydro-3-methyl-2,6-dioxo-4-(trifluoromethyl)-1(2H)-pyrimidinyl]-1,2-benzisothiazol-3-yl}-p-tolyl}oxy}-] the “MOOVA herbicidal effect rating” value ([1]; Rate 0.2500 kg/ha) was 0.0, the “MOOVA herbicidal effect rating” value ([1]; Rate 0.5000 kg/ha) was 9.0 and the “SAGPY herbicidal effect rating” value (Sagittaria pygmaea, L.; Rate 0.2500 kg/ha) was 0.0. The “SAGPY herbicidal effect rating” value (Sagittaria pygmaea, L.; Rate 0.5000 kg/ha) was 0.0, the “CYPIR herbicidal effect rating” value (Cyperus iria; Rate 0.2500 kg/ha) was 0.0 and the “CYPIR herbicidal effect rating” value (Cyperus iria; Rate 0.5000 kg/ha) was 0.0. For the same compound, the “ORYSAT herbicidal effect rating” value ([2]; Rate 0.2500 kg/ha) was 0.0, the “ORYSAT herbicidal effect rating” value ([2]; Rate 0.5000 kg/ha) was 0.0 and the “CYPSE herbicidal effect rating” value ([3]; Rate 0.2500 kg/ha) was 0.0. For the same compound, the “CYPSE herbicidal effect rating” value ([3]; Rate 0.5000 kg/ha) was 0.0, the “ECHORC herbicidal effect rating” value ([4]; Rate 0.2500 kg/ha) was 0.0 and the “ECHORC herbicidal effect rating” value ([4]; Rate 0.5000 kg/ha) was 4.0.

COC(=O)COc1ccc(I)cc1-c1nsc2ccc(-n3c(=O)cc(C(F)(F)F)n(C)c3=O)cc12 [Example 459, Acetic acid, {2-{5-[3,6-dihydro-3-methyl-2,6-dioxo-4-(trifluoromethyl)-1(2H)-pyrimidinyl]-1,2-benzisothiazol-3-yl}-4-iodophenoxy}-, methyl ester] gave an MOOVA herbicidal rating ([1]; 0.0320 kg/ha) of 3.0, an MOOVA ([1]; 0.0620 kg/ha) of 5.0 and an MOOVA ([1]; 0.1250 kg/ha) of 7.0. For the same compound, the MOOVA ([1]; 0.2500 kg/ha) was 7.0, the SAGPY herbicidal rating (Sagittaria pygmaea, L.; 0.0320 kg/ha) was 0.0 and the SAGPY (Sagittaria pygmaea, L.; 0.0620 kg/ha) was 0.0. For the same compound, the SAGPY (Sagittaria pygmaea, L.; 0.1250 kg/ha) was 0.0, the SAGPY (Sagittaria pygmaea, L.; 0.2500 kg/ha) was 0.0 and the CYPIR herbicidal rating (Cyperus iria; 0.0320 kg/ha) was 0.0. It also gave a CYPIR (Cyperus iria; 0.0620 kg/ha) of 2.0, a CYPIR (Cyperus iria; 0.1250 kg/ha) of 4.0 and a CYPIR (Cyperus iria; 0.2500 kg/ha) of 4.0. For the same compound, the “ORYSAT herbicidal rating (rice tolerance)” value (“ORYSAT herbicidal rating” below) ([2]; 0.0320 kg/ha) was 2.0, the ORYSAT ([2]; 0.0620 kg/ha) was 4.0 and the ORYSAT ([2]; 0.1250 kg/ha) was 5.0. For the same compound, the ORYSAT ([2]; 0.2500 kg/ha) was 5.0, the CYPSE herbicidal rating ([3]; 0.0320 kg/ha) was 0.0 and the CYPSE ([3]; 0.0620 kg/ha) was 0.0. It also gave a CYPSE ([3]; 0.1250 kg/ha) of 0.0, a CYPSE ([3]; 0.2500 kg/ha) of 3.0 and an ECHORC herbicidal rating ([4]; 0.0320 kg/ha) of 7.0. The ECHORC ([4]; 0.0620 kg/ha) was 7.0, the ECHORC ([4]; 0.1250 kg/ha) was 9.0 and the ECHORC ([4]; 0.2500 kg/ha) was 9.0.

In the case of COc1ccc(C)cc1-c1nsc2ccc(-n3c(=O)cc(C)n(C)c3=O)cc12 [Example 24, 3-[3-(6-Methoxy-m-tolyl)-1,2-benzisothiazol-5-yl]-1,6-dimethyl-2,4(1H,3H)-pyrimidinedione], the “herbicidal effect rating, MOOVA” value ([1]; 0.0313 kg/ha) is reported as 4.0, the “herbicidal effect rating, MOOVA” value ([1]; 0.0625 kg/ha) is reported as 8.0 and the “herbicidal effect rating, MOOVA” value ([1]; 0.1250 kg/ha) is reported as 9.0. The “herbicidal effect rating, MOOVA” value ([1]; 0.2500 kg/ha) was 9.0, the “herbicidal effect rating, SAGPY” value (Sagittaria pygmaea, L.; 0.0313 kg/ha) was 0.0 and the “herbicidal effect rating, SAGPY” value (Sagittaria pygmaea, L.; 0.0625 kg/ha) was 0.0. For the same compound, the “herbicidal effect rating, SAGPY” value (Sagittaria pygmaea, L.; 0.1250 kg/ha) was 0.0, the “herbicidal effect rating, SAGPY” value (Sagittaria pygmaea, L.; 0.2500 kg/ha) was 0.0 and the “herbicidal effect rating, CYPIR” value (Cyperus iria; 0.0313 kg/ha) was 0.0. The “herbicidal effect rating, CYPIR” value (Cyperus iria; 0.0625 kg/ha) was 2.0, the “herbicidal effect rating, CYPIR” value (Cyperus iria; 0.1250 kg/ha) was 6.0 and the “herbicidal effect rating, CYPIR” value (Cyperus iria; 0.2500 kg/ha) was 8.0. For the same compound, the “herbicidal effect rating, ORYSAT (rice tolerance)” value (from here on “herbicidal effect rating, ORYSAT”) ([2]; 0.0313 kg/ha) was 2.0, the “herbicidal effect rating, ORYSAT” value ([2]; 0.0625 kg/ha) was 2.0 and the “herbicidal effect rating, ORYSAT” value ([2]; 0.1250 kg/ha) was 3.0. The “herbicidal effect rating, ORYSAT” value ([2]; 0.2500 kg/ha) was 4.0, the “herbicidal effect rating, CYPSE” value ([3]; 0.0313 kg/ha) was 0.0 and the “herbicidal effect rating, CYPSE” value ([3]; 0.0625 kg/ha) was 0.0. For the same compound, the “herbicidal effect rating, CYPSE” value ([3]; 0.1250 kg/ha) was 1.0, the “herbicidal effect rating, CYPSE” value ([3]; 0.2500 kg/ha) was 4.0 and the “herbicidal effect rating, ECHORC” value ([4]; 0.0313 kg/ha) was 0.0. For the same compound, the “herbicidal effect rating, ECHORC” value ([4]; 0.0625 kg/ha) was 0.0, the “herbicidal effect rating, ECHORC” value ([4]; 0.1250 kg/ha) was 2.0 and the “herbicidal effect rating, ECHORC” value ([4]; 0.2500 kg/ha) was 7.0.

For Cn1c(C(F)(F)F)cc(=O)n(-c2ccc3snc(COCc4cccc([N+](=O)[O-])c4)c3c2)c1=O [Example 588, 2,4(1H,3H)-Pyrimidinedione, 1-methyl-3-{3-{[(m-nitrobenzyl)oxy]methyl}-1,2-benzisothiazol-5-yl}-6-(trifluoromethyl)-], the “herbicidal effect rating, MOOVA” value ([1]; Rate 0.1250 kg/ha) was 7.0, the “herbicidal effect rating, MOOVA” value ([1]; Rate 0.2500 kg/ha) was 8.0 and the “herbicidal effect rating, SAGPY” value (Sagittaria pygmaea, L.; Rate 0.0320 kg/ha) was 0.0. The “herbicidal effect rating, SAGPY” value (Sagittaria pygmaea, L.; Rate 0.0620 kg/ha) was 0.0, the “herbicidal effect rating, SAGPY” value (Sagittaria pygmaea, L.; Rate 0.1250 kg/ha) was 0.0 and the “herbicidal effect rating, SAGPY” value (Sagittaria pygmaea, L.; Rate 0.2500 kg/ha) was 0.0. For the same compound, the “herbicidal effect rating, CYPIR” value (Cyperus iria; Rate 0.0320 kg/ha) was 0.0, the “herbicidal effect rating, CYPIR” value (Cyperus iria; Rate 0.0620 kg/ha) was 2.0 and the “herbicidal effect rating, CYPIR” value (Cyperus iria; Rate 0.1250 kg/ha) was 6.0. The “herbicidal effect rating, CYPIR” value (Cyperus iria; Rate 0.2500 kg/ha) was 6.0, the “herbicidal effect rating ORYSAT” value ([2]; Rate 0.0320 kg/ha) was 0.0 and the “herbicidal effect rating ORYSAT” value ([2]; Rate 0.0620 kg/ha) was 3.0. The “herbicidal effect rating ORYSAT” value ([2]; Rate 0.1250 kg/ha) was 3.0, the “herbicidal effect rating ORYSAT” value ([2]; Rate 0.2500 kg/ha) was 3.0 and the “herbicidal effect rating, CYPSE” value ([3]; Rate 0.0320 kg/ha) was 0.0. The “herbicidal effect rating, CYPSE” value ([3]; Rate 0.0620 kg/ha) was 0.0, the “herbicidal effect rating, CYPSE” value ([3]; Rate 0.1250 kg/ha) was 5.0 and the “herbicidal effect rating, CYPSE” value ([3]; Rate 0.2500 kg/ha) was 5.0. The “herbicidal effect rating, ECHORC” value ([4]; Rate 0.0320 kg/ha) was 4.0, the “herbicidal effect rating, ECHORC” value ([4]; Rate 0.0620 kg/ha) was 7.0 and the “herbicidal effect rating, ECHORC” value ([4]; Rate 0.1250 kg/ha) was 9.0. For the same compound, the “herbicidal effect rating, ECHORC” value ([4]; Rate 0.2500 kg/ha) was 7.0.

Work on Cc1cccc(CS(=O)(=O)NC(=O)c2nsc3ccc(-n4c(=O)cc(C(F)(F)F)n(C)c4=O)cc23)c1 [Example 483, 1,2-Benzisothiazole-3-carboxamide, 5-[3,6-dihydro-3-methyl-2,6-dioxo-4-(trifluoromethyl)-1(2H)-pyrimidinyl]-N-[(m-methylbenzyl)sulfonyl]-] yielded an MOOVA herbicidal rating ([1]; 0.0320 kg/ha) of 7.0, an MOOVA herbicidal rating ([1]; 0.0620 kg/ha) of 9.0 and an MOOVA herbicidal rating ([1]; 0.1250 kg/ha) of 9.0. The MOOVA herbicidal rating ([1]; 0.2500 kg/ha) was 9.0, the SAGPY herbicidal rating (Sagittaria pygmaea, L.; 0.0320 kg/ha) was 0.0 and the SAGPY herbicidal rating (Sagittaria pygmaea, L.; 0.0620 kg/ha) was 0.0. It also gave an SAGPY herbicidal rating (Sagittaria pygmaea, L.; 0.1250 kg/ha) of 3.0, an SAGPY herbicidal rating (Sagittaria pygmaea, L.; 0.2500 kg/ha) of 5.0 and a CYPIR herbicidal rating (Cyperus iria; 0.0320 kg/ha) of 0.0. The CYPIR herbicidal rating (Cyperus iria; 0.0620 kg/ha) was 2.0, the CYPIR herbicidal rating (Cyperus iria; 0.1250 kg/ha) was 5.0 and the CYPIR herbicidal rating (Cyperus iria; 0.2500 kg/ha) was 6.0. The “ORYSAT herbicidal rating” value ([2]; 0.0320 kg/ha) was 3.0, the “ORYSAT herbicidal rating” value ([2]; 0.0620 kg/ha) was 3.0 and the “ORYSAT herbicidal rating” value ([2]; 0.1250 kg/ha) was 5.0. The “ORYSAT herbicidal rating” value ([2]; 0.2500 kg/ha) was 6.0, the CYPSE herbicidal rating ([3]; 0.0620 kg/ha) was 4.0 and the CYPSE herbicidal rating ([3]; 0.2500 kg/ha) was 6.0. It also gave an ECHORC herbicidal rating ([4]; 0.0320 kg/ha) of 6.0, an ECHORC herbicidal rating ([4]; 0.0620 kg/ha) of 7.0 and an ECHORC herbicidal rating ([4]; 0.1250 kg/ha) of 7.0. It also gave an ECHORC herbicidal rating ([4]; 0.2500 kg/ha) of 7.0.
